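Interpolation was linear, between the two tested concentrations surrounding the appropriate level; five concentrations were tested over 48 hours in 96-well plates. TGI marks complete inhibition of growth.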
How the values were obtained:
Experiment in all cases: growth of human tumour cells (NCI), 48 h
[1] = test system: 786-0 renal
[2] = test system: A498 renal
[3] = test system: A549 NSCLC
[4] = test system: ACHN renal
[5] = test system: CAKI-1 renal
[6] = test system: CCRF-CEM leukemia
[7] = test system: COLO 205 colon
[8] = test system: DLD-1 colon
[9] = test system: DMS 114 small cell lung
[10] = test system: DMS 273 small cell lung
[11] = test system: EKVX NSCLC
[12] = test system: HCC-2998 colon
[13] = test system: HCT-116 colon
[14] = test system: HCT-15 colon
[15] = test system: HL-60(TB) leukemia
[16] = test system: HOP-18 NSCLC
[17] = test system: HOP-62 NSCLC
[18] = test system: HOP-92 NSCLC
[19] = test system: HT29 colon
[20] = test system: IGROV1 ovarian
[21] = test system: K-562 leukemia
[22] = test system: KM12 colon
[23] = test system: KM20L2 colon
[24] = test system: LOX IMVI melanoma
[25] = test system: LXFL 529 NSCLC
[26] = test system: M14 melanoma
[27] = test system: MALME-3M melanoma
[28] = test system: MOLT-4 leukemia
[29] = test system: NCI-H226 lung
[30] = test system: NCI-H23 lung
[31] = test system: NCI-H460 lung
[32] = test system: NCI-H522 lung
[33] = test system: OVCAR-3 ovarian
[34] = test system: OVCAR-4 ovarian
[35] = test system: OVCAR-5 ovarian
[36] = test system: OVCAR-8 ovarian
[37] = test system: RPMI-8226 leukemia
[38] = test system: RXF-631 renal
[39] = test system: SF-268 CNS
[40] = test system: SF-295 CNS
[41] = test system: SF-539 CNS
[42] = test system: SK-MEL-2 melanoma
[43] = test system: SK-MEL-28 melanoma
[44] = test system: SK-MEL-5 melanoma
[45] = test system: SK-OV-3 ovarian
[46] = test system: SN12C renal
[47] = test system: SNB-75 CNS
[48] = test system: SNB-78 CNS
[49] = test system: SW-620 colon
[50] = test system: TK-10 renal
[51] = test system: U251 CNS
[52] = test system: UACC-257 melanoma
[53] = test system: UACC-62 melanoma
[54] = test system: UO-31 renal
[55] = test system: M19-MEL melanoma
[56] = test system: RXF 393 renal
[57] = test system: SNB-19 CNS
[58] = test system: SR leukemia
[59] = test system: XF 498 CNS

Measured: TGI

Nc1ncnc2c1ncn2C1OC(CSC(F)F)C(O)C1O (configuration not stated)
not listed: [55] | [56] | [57] | [58] | [59]
> 100 µM: all other assays above

Cn1ccnc1CCc1ccc(Cl)cc1Cl
not listed: [44] | [58] | [59]
> 100 µM: all other assays above

COC(=O)C1CC2c3c(c4ccccc4n3C)CC(C1=O)N2C (configuration not stated)
69 µM: [54]
92.8 µM: [13]
60.7 µM: [9]
68.5 µM: [15]
87.6 µM: [58]
32.5 µM: [7]
34.8 µM: [32]
43.6 µM: [10]
50.7 µM: [14]
not listed: [17] | [37] | [56] | [59]
> 100 µM: all other assays above

Clc1ccc(OCc2nnc3n2N=C(c2ccccc2)CS3)cc1
34.4 µM: [42]
36.5 µM: [32]
62.5 µM: [28]
27.3 µM: [36]
39.9 µM: [29] | [39]
23.3 µM: [13]
25.2 µM: [30]
31 µM: [14]
33.3 µM: [41]
85.7 µM: [47]
29.8 µM: [19]
32.1 µM: [12]
29.3 µM: [52]
25.8 µM: [46]
35.1 µM: [3]
29.5 µM: [58]
36.7 µM: [18] | [40]
34.8 µM: [17]
33.1 µM: [55]
46.3 µM: [57]
44.7 µM: [45]
23.5 µM: [20]
30.8 µM: [7] | [24]
38.2 µM: [43]
30.9 µM: [59]
30.2 µM: [1]
44 µM: [8]
36.1 µM: [35]
53.4 µM: [50]
20.8 µM: [54]
30.6 µM: [23] | [34]
30.4 µM: [15]
32.9 µM: [49]
31.9 µM: [51]
32.7 µM: [37]
61.8 µM: [5]
31.6 µM: [22]
34.5 µM: [27]
32.4 µM: [33]
40.7 µM: [25]
41 µM: [26]
30.5 µM: [10] | [31]
42.8 µM: [21]
31.1 µM: [38]
37.5 µM: [4]
28.4 µM: [53]

CC(C)c1ccccc1NC(=O)CCC(=O)NN
not listed: [2] | [7] | [9] | [12] | [16] | [17] | [19] | [31] | [34] | [35] | [36] | [44] | [56]
> 100 µM: all other assays above
